Experiments:
[1] = Peptide toxins in the urine of beagles with biliary drainage; assay type: in vivo, beagle dogs; details: for Total (accumulated) amount excreted in urine / percentage of total urine excretion, Total: 0–4 days
Experimental: (§1) The study was approved by National Institute of Occupational Health and Poison Control review board for animal experiments. Twenty-four male beagles (age, 8–10 months; weight, 10 ± 1 kg) were obtained from Beijing Institute of Xieerxin Biology Resource (Beijing, China). They were randomly divided into four groups of six animals each: control, biliary drainage, and 20 and 60 mg/kg with biliary drainage groups. The biliary drainage operation was conducted in all groups barring the control group. The dogs were dressed in homemade underwear, coats, and Elizabeth circles for a week to ensure pre-experimental acclimatization (Figure S8a–c). After determining the baseline values for biochemical indicators, the dogs were fasted for 24 h but received water ad libitum. They were anesthetized by intravenous administration of pentobarbital sodium (3%, 1 mL/kg) during the surgery. A temperature of 38–39 °C was maintained with a warming mat. After skin preservation and sterilization, the abdominal cavity was opened through the central abdomen. The abdomen was explored and blunt dissection of the common bile duct was performed (Figure S8d). The common bile duct and its branches were ligated from the intestinal side. A 7.0-Fr drainage catheter (COOK, Bloomington, IN, USA) was percutaneously inserted into the gallbladder, and a medical drainage bag was connected to the drainage catheter coming out of the abdominal cavity. Each opened layer, including the peritoneum, abdominal wall muscle, and skin, was closed with suture. The operative incision was protected with sterile gauze and a bandage, and the dogs were dressed in homemade underwear, coats, and Elizabeth circles. The drainage bag was placed in the pocket of the coat (Figure S8e). After the anesthetic wore off, the dogs were placed in cages, and food and water were provided ad libitum. The operative incision was sterilized with iodophor twice a day until stitches were removed six days after surgery. The drainage bag was replaced every day. On the eighth day after surgery, the 20 and 60 mg/kg with biliary drainage groups were orally administered a lyophilized powder of Amanita exitialis in starch capsules. In control and bile drainage group, the beagle dogs were fed with empty capsules. Immediately after dosing, the animals were placed in their cages, and food and water were provided ad libitum. Dogs were sacrificed with an overdose of sodium pentobarbital at the end of the experiment. All procedures were performed according to the ethical standards of the National Institutes of Health Guide for Animal Welfare and approved by the Institutional Animal Care and Use Committee (EAWE-2017-005).
(§2) Peptide toxins in blood and urine samples were analyzed as described previously. Bile samples from Days 0–1, Days 1–2, Days 2–3, and Days 3–4 were collected and stored in medical drainage bags and the bile volume was recorded. Plasma and urine samples were stored at 2–8 °C until analysis for peptide toxins.
(§3) UPLC and MS/MS parameters were as described in our previous study. The limit of detection and limit of quantitation of each toxin in the bile were 0.03 mg/kg and 0.5 mg/kg, respectively.

[2] = Peptide toxins in the bile of beagles with biliary drainage; assay type: in vivo, beagle dogs; details: for Accumulated amounts excreted in bile / percentage of total bile excretion, Accumulated amounts: 0–4 days; for ratio of peptide toxins in bile to excretion in urine and bile: mean ± SD
Experimental: as §1, §2
α-Amanitin, β-amanitin, γ-amanitin, and phallacidin were used as the standard reference materials. Aliquots (0.2 mL) of bile samples were transferred into 2-mL polypropylene centrifuge tubes in duplicates. Next, 1 mL of acetonitrile was added to each tube. After vortex-mixing for 1 min, each sample was sonicated for 30 min and centrifuged at 11,200× g for 10 min at 4 °C. The supernatants were loaded on solid-phase extraction columns (Oasis PRiME HLB, 60 mg, 3 cc). The columns were then washed with 3 mL of methanol/ultrapure water (v/v: 5/95). The eluent was evaporated in a stream of nitrogen at room temperature. The dry residue was dissolved in 0.2 mL of ultrapure water and analyzed by UPLC-ESI-MS/MS.
as §3

[3] = 0-1 d, 60 mg/kg with biliary drainage group
[4] = 0–1 days, 20 mg/kg with biliary drainage group
[5] = 0–1 days, 60 mg/kg with biliary drainage group
[6] = 20 mg/kg with biliary drainage group
[7] = 60 mg/kg with biliary drainage group
[8] = 1-2 d, 20 mg/kg with biliary drainage group
[9] = 1-2 d, 60 mg/kg with biliary drainage group
[10] = 1–2 days, 20 mg/kg with biliary drainage group
[11] = 1–2 days, 60 mg/kg with biliary drainage group
[12] = 2-3 d, 20 mg/kg with biliary drainage group
[13] = 2-3 d, 60 mg/kg with biliary drainage group
[14] = 2–3 days, 20 mg/kg with biliary drainage group
[15] = 2–3 days, 60 mg/kg with biliary drainage group
[16] = 3-4d, 20 mg/kg with biliary drainage group
[17] = 3-4d, 60 mg/kg with biliary drainage group
[18] = 3–4 days, 20 mg/kg with biliary drainage group
[19] = 3–4 days, 60 mg/kg with biliary drainage group

CC[C@H](C)[C@@H]1NC(=O)CNC(=O)[C@@H]2Cc3c([nH]c4cc(O)ccc34)[S@+]([O-])C[C@H](NC(=O)CNC1=O)C(=O)N[C@@H](CC(N)=O)C(=O)N1C[C@H](O)C[C@H]1C(=O)N[C@@H]([C@@H](C)[C@@H](O)CO)C(=O)N2 [α-amanitin]
detection rate of peptide toxins in urine [1, 3]: 100% | daily amount excreted in urine [1, 4]: 0.0147 mg | percentage of total urine excretion excreted daily ([1]; 0–1 days, 20 mg/kg with biliary drainage group, 20 mg/kg): more than 90% | percentage of total urine excretion excreted daily ([1]; 0–1 days, 20 mg/kg with biliary drainage group, listed as α-Amanitin, 20 mg/kg): 96.3% | daily amount excreted in urine [1, 5]: 0.0213 mg | percentage of total urine excretion excreted daily ([1]; 0–1 days, 60 mg/kg with biliary drainage group, 60 mg/kg): more than 90% | percentage of total urine excretion excreted daily ([1]; 0–1 days, 60 mg/kg with biliary drainage group, listed as α-Amanitin, 60 mg/kg): 90.9% | Total (accumulated) amount excreted in urine [1, 6]: 0.0151 mg | percentage of total urine excretion, Total [1, 6]: 100% | Total (accumulated) amount excreted in urine [1, 7]: 0.0222 mg | percentage of total urine excretion, Total [1, 7]: 100% | time within which toxin was detected in urine [1, 6]: two | time within which toxin was detected in urine [1, 7]: three | detection rate of peptide toxins in urine [1, 8]: 100% | detection rate of peptide toxins in urine [1, 9]: 100% | daily amount excreted in urine [1, 10]: 0.0004 mg | percentage of total urine excretion excreted daily [1, 10]: 3.7% | daily amount excreted in urine [1, 11]: 0.0007 mg | percentage of total urine excretion excreted daily [1, 11]: 8.9% | detection rate of peptide toxins in urine [1, 12]: 0% | toxin content in urine ([1]; 2-3d, 20 mg/kg with biliary drainage group, mean ± SD): 0 µg/L | detection rate of peptide toxins in urine [1, 13]: 50% | daily amount excreted in urine [1, 14]: 0(0%) mg | percentage of total urine excretion excreted daily [1, 14]: 0(0%) | daily amount excreted in urine [1, 15]: 0.0001 mg | percentage of total urine excretion excreted daily [1, 15]: 0.2% | detection rate of peptide toxins in urine [1, 16]: 0% | toxin content in urine [1, 16]: 0 µg/L | detection rate of peptide toxins in urine [1, 17]: 0% | toxin content in urine [1, 17]: 0 µg/L | daily amount excreted in urine [1, 18]: 0(0%) mg | percentage of total urine excretion excreted daily [1, 18]: 0(0%) | daily amount excreted in urine [1, 19]: 0(0%) mg | percentage of total urine excretion excreted daily [1, 19]: 0(0%) | share of total urine excretion in the 0–2-day urine ([1]; beagles with biliary drainage, both dose groups): more than 95% | detection rate of peptide toxins in bile [2, 3]: 83% | daily amount excreted in bile [2, 4]: 0.00007 mg | percentage of total bile excretion excreted daily [2, 4]: 100% | daily amount excreted in bile [2, 5]: 0.00061 mg | percentage of total bile excretion excreted daily [2, 5]: 100% | Accumulated amounts excreted in bile [2, 6]: 0.00007 mg | percentage of total bile excretion, Accumulated amounts [2, 6]: 100% | Accumulated amounts excreted in bile [2, 7]: 0.00061 mg | percentage of total bile excretion, Accumulated amounts [2, 7]: 100% | ratio of peptide toxins in bile to excretion in urine and bile [2, 6]: less than 10% | ratio of peptide toxins in bile to excretion in urine and bile ([2]; 20 mg/kg with biliary drainage group, listed as α-Amanitin): 1.3 ± 2.4% | ratio of peptide toxins in bile to excretion in urine and bile [2, 7]: less than 20% | ratio of peptide toxins in bile to excretion in urine and bile ([2]; 60 mg/kg with biliary drainage group, listed as α-Amanitin): 3.1 ± 2.5% | detection rate of peptide toxins in bile [2, 8]: 0% | toxin concentration in bile [2, 8]: 0 µg/L | detection rate of peptide toxins in bile [2, 9]: 0% | toxin concentration in bile [2, 9]: 0 µg/L | daily amount excreted in bile [2, 10]: 0(0%) mg | percentage of total bile excretion excreted daily [2, 10]: 0(0%) | daily amount excreted in bile [2, 11]: 0(0%) mg | percentage of total bile excretion excreted daily [2, 11]: 0(0%) | detection rate of peptide toxins in bile [2, 12]: 0% | toxin concentration in bile [2, 12]: 0 µg/L | detection rate of peptide toxins in bile [2, 13]: 0% | toxin concentration in bile [2, 13]: 0 µg/L | daily amount excreted in bile [2, 14]: 0(0%) mg | percentage of total bile excretion excreted daily [2, 14]: 0(0%) | daily amount excreted in bile [2, 15]: 0(0%) mg | percentage of total bile excretion excreted daily [2, 15]: 0(0%) | detection rate of peptide toxins in bile [2, 16]: 0% | toxin concentration in bile [2, 16]: 0 µg/L | detection rate of peptide toxins in bile [2, 17]: 0% | toxin concentration in bile [2, 17]: 0 µg/L | daily amount excreted in bile [2, 18]: 0(0%) mg | percentage of total bile excretion excreted daily [2, 18]: 0(0%) | daily amount excreted in bile [2, 19]: 0(0%) mg | percentage of total bile excretion excreted daily [2, 19]: 0(0%)

— article PMC6024615, “Effect of Biliary Drainage on the Toxicity and Toxicokinetics of Amanita exitialis in Beagles” (Toxins, 2018)
